Tested on: anti-phosphotyrosine antibody (MAb PY-20)
Test: Method for identifying phosphotyrosine mimics: competitive binding to anti-phosphotyrosine antibody (ELISA)
Design: species or system mouse
Conditions: ELISA criterion: 50% or greater inhibition of anti-phosphotyrosine binding 15 μg/ml; biotinylated peptide ECQ(pY)QPQP
From the text: The present invention also provides a convenient and sensitive method for identifying phosphotyrosine mimics by utilizing anti-phosphotyrosine antibodies to rapidly screen large numbers of non-phosphorylated test compounds. Specifically, this method comprises the steps of:
(a) contacting a non-phosphorylated test compound and a phosphotyrosine-containing substance with an anti-phosphotyrosine antibody; and
(b) detecting the ability of the non-phosphorylated test compound to inhibit the binding of the anti-phosphotyrosine antibody to the phosphotyrosine-containing substance.
A 96 well microtiter plate (Pierce #15126, Reacti-Bind Streptvidin coated polystyrene) was coated with 100 μl of biotinylated peptide ECQ(pY)QPQP (MW=1367.5) at a concentration of 15 nM in Tris Buffered Saline (TBST) (10 mM Tris.HCl, pH 7.5, 100 mM NaCl, 0.1% Tween 20) for 45 minutes at room temperature. The microtiter plate was washed 4 times with TBST. MAb PY-20 (Zymed #03-7799) was pre incubated for 45 minutes at a 2× concentration of 0.078 μg/ml ([…]) with a 2× concentration of non-phosphorylated test compounds in TBST. 100 μl of test compound/antibody solution was added in duplicate to each of the wells and incubated at room temperature. The microtiter plate was washed 4 times with TBST. […] Optical density was measured at 405 nm. […]

O=C(O)c1ccccc1 [phenyl carboxylic acid]
identification as phosphotyrosine mimic (inhibition of anti-phosphotyrosine antibody binding to a phosphotyrosine-containing substance): identified as a phosphotyrosine mimic

From patent US6071707A, “Phosphotyrosine mimics and method for identifying and using same” (Boehringer Ingelheim Pharmaceuticals, Inc., priority 1997, dated 2000)
